From patent US20120252729A1, “PTH-CONTAINING THERAPEUTIC/PROPHYLACTIC AGENT FOR OSTEOPOROSIS, CHARACTERIZED IN THAT PTH IS ADMINISTERED ONCE A WEEK IN A UNIT DOSE OF 100 TO 200 UNITS” (ASAHI KASEI PHARMA CORPORATION, priority 2009, published 2012)

Key:
[1] = tested on: high-risk patients diagnosed with primary osteoporosis; assay: Working Example 2: new (incl. multiple, new+worsening) vertebral fractures by x-ray, test drug 200 units once a week for 72 weeks vs placebo; assay type: in vivo, human
Description: The above patients also took two tablets of a calcium agent once a day after dinner. […] The preparation contained precipitated calcium carbonate, magnesium carbonate, cholecalciferol (vitamin D3), and the like as components and is marketed under the trade name New Calcichew (trademark) D3″ (sold by: Daiichi Sankyo Health Care, manufactured and sold by: Nitto Pharmaceutical Industries, Ltd.).
The incidence of bone fractures was checked by frontal and lateral x-rays of the fourth thoracic to the fourth lumbar spine taken at the start and every 24 weeks thereafter.
Here, “multiple vertebral fractures” was defined as two or more new vertebral fractures. When the incidence of multiple vertebral fractures (number of cases) was compared in the test drug group (n=261) and control group (n=281) after 72 weeks of administration, it was 2.1% (6 cases) in the control group and 0.8% (2 cases) in the test drug group.

[2] = tested on: high-risk patients diagnosed with primary osteoporosis; assay: Working Example 2: CT geometry of the proximal femur (neck, trochanter, shaft); assay type: in vivo, human; conditions: 200 units weekly
Method: For the CT geometry, the proximal part of the femur was measured at the start and after 48 and 72 weeks using multislice CT scan.
The effects of the test drug on three parts of the femur (neck of the femur, trochanter, and shaft of the femur) were studied using ordinary CT scans.

[3] = 200 units weekly, 72 weeks, No. of fractures: five or more
[4] = 200 units weekly, 72 weeks, No. of fractures: four
[5] = 200 units weekly, 72 weeks, No. of fractures: none
[6] = 200 units weekly, 72 weeks, No. of fractures: one
[7] = 200 units weekly, 72 weeks, No. of fractures: three
[8] = 200 units weekly, 72 weeks, No. of fractures: two
[9] = 200 units weekly, after 72 weeks, n=261
[10] = 200 units weekly, history of Alfacalcidol
[11] = 200 units weekly, history of calcitriol
[12] = 200 units weekly, history of calcium L-aspartate
[13] = 200 units weekly, history of calcium lactate
[14] = 200 units weekly, history of elcatonin
[15] = 200 units weekly, history of menatetrenone
[16] = 200 units weekly, history of raloxifene hydrochloride
[17] = 200 units weekly, patients taking glucocorticoid

teriparatide acetate
Occurrence of new vertebral fractures after 48 weeks ([1]; 200 units weekly, 48 to 72 weeks): no new vertebral fractures occurred after 48 weeks
New vertebral fractures: Incidence (%) [1, 3]: 0.0%
New vertebral fractures: No. of subjects [1, 3]: 0
New vertebral fractures: Incidence (%) [1, 4]: 0.0%
New vertebral fractures: No. of subjects [1, 4]: 0
New vertebral fractures: Incidence (%) [1, 5]: 97.3%
New vertebral fractures: No. of subjects [1, 5]: 254
New vertebral fractures: Incidence (%) [1, 6]: 1.9%
New vertebral fractures: No. of subjects [1, 6]: 5
New vertebral fractures: Incidence (%) [1, 7]: 0.0%
New vertebral fractures: No. of subjects [1, 7]: 0
New vertebral fractures: Incidence (%) [1, 8]: 0.8%
New vertebral fractures: No. of subjects [1, 8]: 2
Lowering of the risk of vertebral fractures (new+worsening) in comparison to the placebo ([1]; 200 units weekly, after 72 weeks): 78.6%
Incidence of vertebral fractures (new+worsening) by Kaplan-Meier estimation ([1]; 200 units weekly, after 72 weeks, FAS): 3.5%
Incidence of multiple vertebral fractures (two or more new vertebral fractures) [1, 9]: 0.8%
Multiple vertebral fractures, number of cases [1, 9]: 2 cases
New vertebral fractures: No. with fractures ([1]; 200 units weekly, complication (diabetes): no): 7
Incidence of new vertebrae fractures (%) ([1]; 200 units weekly, complication (diabetes): no, after 24 W): 2.8%
Incidence of new vertebrae fractures (%) ([1]; 200 units weekly, complication (diabetes): no, after 48 W): 3.3%
Incidence of new vertebrae fractures (%) ([1]; 200 units weekly, complication (diabetes): no, after 72 W): 3.3%
New vertebral fractures: No. with fractures ([1]; 200 units weekly, complication (diabetes): yes): 0
Incidence of new vertebrae fractures (%) ([1]; 200 units weekly, complication (diabetes): yes, after 24 W): 0.0%
Incidence of new vertebrae fractures (%) ([1]; 200 units weekly, complication (diabetes): yes, after 48 W): 0.0%
Incidence of new vertebrae fractures (%) ([1]; 200 units weekly, complication (diabetes): yes, after 72 W): 0.0%
New vertebral fractures: No. with fractures ([1]; 200 units weekly, complication (hyperlipidemia): no): 4
Incidence of new vertebrae fractures (%) ([1]; 200 units weekly, complication (hyperlipidemia): no, after 24 W): 2.2%
Incidence of new vertebrae fractures (%) ([1]; 200 units weekly, complication (hyperlipidemia): no, after 48 W): 3.0%
Incidence of new vertebrae fractures (%) ([1]; 200 units weekly, complication (hyperlipidemia): no, after 72 W): 3.0%
New vertebral fractures: No. with fractures ([1]; 200 units weekly, complication (hyperlipidemia): yes): 3
Incidence of new vertebrae fractures (%) ([1]; 200 units weekly, complication (hyperlipidemia): yes, after 24 W): 3.2%
Incidence of new vertebrae fractures (%) ([1]; 200 units weekly, complication (hyperlipidemia): yes, after 48 W): 3.2%
Incidence of new vertebrae fractures (%) ([1]; 200 units weekly, complication (hyperlipidemia): yes, after 72 W): 3.2%
New vertebral fractures: No. with fractures ([1]; 200 units weekly, complication (hypertension): no): 3
Incidence of new vertebrae fractures (%) ([1]; 200 units weekly, complication (hypertension): no, after 24 W): 2.1%
Incidence of new vertebrae fractures (%) ([1]; 200 units weekly, complication (hypertension): no, after 48 W): 3.1%
Incidence of new vertebrae fractures (%) ([1]; 200 units weekly, complication (hypertension): no, after 72 W): 3.1%
New vertebral fractures: No. with fractures ([1]; 200 units weekly, complication (hypertension): yes): 4
Incidence of new vertebrae fractures (%) ([1]; 200 units weekly, complication (hypertension): yes, after 24 W): 3.1%
Incidence of new vertebrae fractures (%) ([1]; 200 units weekly, complication (hypertension): yes, after 48 W): 3.1%
Incidence of new vertebrae fractures (%) ([1]; 200 units weekly, complication (hypertension): yes, after 72 W): 3.1%
Incidence of new vertebral fractures (%) ([1]; 200 units weekly, creatinine clearance abnormal (<80), after 24 W): 2.8%
Incidence of new vertebral fractures (%) ([1]; 200 units weekly, creatinine clearance abnormal (<80), after 48 W): 3.4%
Incidence of new vertebral fractures (%) ([1]; 200 units weekly, creatinine clearance abnormal (<80), after 72 W): 3.4%
New vertebral fractures: No. with fractures ([1]; 200 units weekly, creatinine clearance at start abnormal (<80)): 6
New vertebral fractures: No. with fractures ([1]; 200 units weekly, creatinine clearance at start normal (≧80)): 0
Incidence of new vertebral fractures (%) ([1]; 200 units weekly, creatinine clearance normal (≧80), after 24 W): 0.0%
Incidence of new vertebral fractures (%) ([1]; 200 units weekly, creatinine clearance normal (≧80), after 48 W): 0.0%
Incidence of new vertebral fractures (%) ([1]; 200 units weekly, creatinine clearance normal (≧80), after 72 W): 0.0%
New vertebral fractures: no (patients) [1, 10]: 62
New vertebral fractures: yes (patients) [1, 10]: 1
New vertebral fractures: no (patients) [1, 11]: 7
New vertebral fractures: yes (patients) [1, 11]: 1
New vertebral fractures: no (patients) [1, 12]: 28
New vertebral fractures: yes (patients) [1, 12]: 1
New vertebral fractures: no (patients) [1, 13]: 8
New vertebral fractures: yes (patients) [1, 13]: 0
New vertebral fractures: no (patients) [1, 14]: 35
New vertebral fractures: yes (patients) [1, 14]: 2
New vertebral fractures: no (patients) [1, 15]: 6
New vertebral fractures: yes (patients) [1, 15]: 0
New vertebral fractures: no (patients) [1, 16]: 20
New vertebral fractures: yes (patients) [1, 16]: 0
Existence of new vertebral fractures, Fracture: no (patients) [1, 17]: 29
Existence of new vertebral fractures, Fracture: yes (patients) [1, 17]: 0
New vertebral fractures: No. with fractures ([1]; 200 units weekly, prior osteoporosis treatment (no)): 4
Incidence of new vertebral fractures (%) ([1]; 200 units weekly, prior osteoporosis treatment (no), after 24 W): 2.4%
Incidence of new vertebral fractures (%) ([1]; 200 units weekly, prior osteoporosis treatment (no), after 48 W): 3.2%
Incidence of new vertebral fractures (%) ([1]; 200 units weekly, prior osteoporosis treatment (no), after 72 W): 3.2%
New vertebral fractures: No. with fractures ([1]; 200 units weekly, prior osteoporosis treatment (yes)): 3
Incidence of new vertebral fractures (%) ([1]; 200 units weekly, prior osteoporosis treatment (yes), after 24 W): 2.9%
Incidence of new vertebral fractures (%) ([1]; 200 units weekly, prior osteoporosis treatment (yes), after 48 W): 2.9%
Incidence of new vertebral fractures (%) ([1]; 200 units weekly, prior osteoporosis treatment (yes), after 72 W): 2.9%
New vertebral fractures, No. with fractures ([1]; FAS, 72 weeks): 7
New vertebral fractures, No. with fractures ([1]; time after administration >24 W-≦48 W): 2
New vertebral fractures, No. with fractures ([1]; time after administration >48 W-≦72 W): 0
New vertebral fractures, No. with fractures ([1]; time after administration ≦24 W): 6
Maximum section modulus (SM (Z min)), change from baseline after 48 weeks (%) ([2]; neck of femur): 3.43%
Maximum section modulus (SM (Z min)), change from baseline after 72 weeks (%) ([2]; neck of femur): 1.87%
Volume bone mineral density (cortical bone) [vBMD cortical], change from baseline after 48 weeks (%) ([2]; neck of femur): −0.77%
Volume bone mineral density (cortical bone) [vBMD cortical], change from baseline after 72 weeks (%) ([2]; neck of femur): −1.14%
Volume bone mineral density (total) [vBMD total], change from baseline after 48 weeks (%) ([2]; neck of femur): 0.92%
Volume bone mineral density (total) [vBMD total], change from baseline after 72 weeks (%) ([2]; neck of femur): 0.15%
Maximum section modulus (SM (Z min)), change from baseline after 48 weeks (%) ([2]; shaft of femur): 1.28%
Maximum section modulus (SM (Z min)), change from baseline after 72 weeks (%) ([2]; shaft of femur): 2.69%
Volume bone mineral density (cortical bone) [vBMD cortical], change from baseline after 48 weeks (%) ([2]; shaft of femur): 0.59%
Volume bone mineral density (cortical bone) [vBMD cortical], change from baseline after 72 weeks (%) ([2]; shaft of femur): 0.18%
Volume bone mineral density (total) [vBMD total], change from baseline after 48 weeks (%) ([2]; shaft of femur): 1.03%
Volume bone mineral density (total) [vBMD total], change from baseline after 72 weeks (%) ([2]; shaft of femur): 1.25%
Maximum section modulus (SM (Z min)), change from baseline after 48 weeks (%) ([2]; trochanter): 5.19%
Maximum section modulus (SM (Z min)), change from baseline after 72 weeks (%) ([2]; trochanter): 3.20%
Volume bone mineral density (cortical bone) [vBMD cortical], change from baseline after 48 weeks (%) ([2]; trochanter): −0.49%
Volume bone mineral density (cortical bone) [vBMD cortical], change from baseline after 72 weeks (%) ([2]; trochanter): −1.49%
Volume bone mineral density (total) [vBMD total], change from baseline after 48 weeks (%) ([2]; trochanter): 1.36%
Volume bone mineral density (total) [vBMD total], change from baseline after 72 weeks (%) ([2]; trochanter): 0.95%
